Results taken from PubChem BioAssay AID1963976 (Molecular Pharmacology Branch, DTP, NCI, 2024).

Tested on: 435261-313-R-J1-PDC tumor spheroid viability
Experiment: Anticancer human tumor 435261-313-R-J1-PDC patient-derived colon adenocarcinoma cell line growth inhibition [PI3K]
Conditions: spheroids with HUVEC and MSC; for IC50: curve of first compound; for viability, T/C: stronger effect = lower value
Source text: Combinatorial screen of targeted agents with the PI3K inhibitors inavolisib, alpelisib, duvelisib, and copanlisib in multi-cell type tumor spheroids
A high-throughput screen of multi-cell type tumor spheroids was designed to identify active combinations of targeted small molecules and PI3K pathway inhibitors. Complex spheroids include a stromal component modeled by human endothelial cells (HUVEC) and fibroblasts modeled by human mesenchymal stem cells (MSCs). The concentration ranges selected for each drug and investigational agent were based upon clinically achievable concentrations if the clinical Cmax of the agent was known.
Compounds. The drugs and investigational agents: inavolisib (NSC800729), alpelisib (NSC765974), duvelisib (NSC772469), copanlisib (NSC816437), ipatasertib (NSC767898), afuresertib (NSC778305), talazoparib (NSC767125), sapanisertib (NSC764658), selumetinib (NSC741078), tovorafenib (DAY101, NSC766906), vemurafenib (NSC761431), ravoxertinib (NSC781343), sotorasib (NSC818433), MRTX1133 (NSC 836407), abemaciclib (NSC 768073), palbociclib (NSC758247), venetoclax (NSC 766270), SY5609 (NSC837396), enzalutamide (NSC755605), and darolutamide (NSC825331), were obtained from the National Cancer Institute (NCI) Developmental Therapeutics Program Chemical Repository. The FDA-approved anticancer drug set is available from the NCI Developmental Therapeutics Program. […] The stock solutions were prepared in dimethyl sulfoxide (DMSO, Sigma-Aldrich, St. Louis, MO, cat. D2650) at 800-fold the tested concentration and stored at -70 degrees C prior to their use. All drugs and investigational agents were tested over a range starting from a high concentration at or near the clinical Cmax and decreasing in half-log increments. If the clinical Cmax for an agent had not been determined, the highest concentration tested was 10 microM.
Cell Culture. All cells were maintained in an incubator at 37 degrees C and 5% CO2 with 95% humidity. The PDC lines were cultured according to standard operating procedures established by the NCI PDMR (https://pdmr.cancer.gov/sops/default.htm). All PDCs were thawed and cultured in Matrigel-coated flasks prepared with a working solution of 1X Ham's F-12 nutrient mix, without supplementation (Invitrogen, Waltham, MA, cat. 11765054), 100 U/mL penicillin-streptomycin (Invitrogen, cat. 15140122), and 2.5% Matrigel (Corning Inc., Corning, NY, cat. 354248) for the first three passages. The 354836-022-R-J1-PDC, 475296-252-R-J1-PDC, and 997726-040-R-J2-PDC lines were cultured in 6A media, which includes advanced DMEM/F-12 (Thermo Fisher Scientific, cat. 12634028), 10 mM HEPES (Thermo Fisher Scientific, cat. 15630080), 1X GlutaMAX supplement (Thermo Fisher Scientific, cat. 35050061), 0.1 mg/mL primocin (InvivoGen, San Diego, CA, cat. ant-pm-2), 10% defined fetal bovine serum, heat inactivated (HyClone Laboratories Inc., Logan, UT, cat. SH30070.03HI), 50% L-WRN conditioned media (ATCC, cat. CRL-3276), 1.25 mM N-Acetyl-L-cysteine (Sigma-Aldrich, cat. A9165), 10 mM nicotinamide (Sigma-Aldrich, cat. N0636), 1X B-27 supplement (Thermo Fisher Scientific, cat. 17504044), 1X N-2 supplement (Thermo Fisher Scientific, cat. 17502048), and 10 microM Y-27632 dihydrochloride (Tocris Bioscience, Bristol, United Kingdom, cat. 1254). The 624824-186-R-J2-PDC line was cultured in 6C/Colon 1B media, which includes all 6A media components plus 50 ng/mL human EGF recombinant protein (Thermo Fisher Scientific, cat. PHG0311). […]

[1] = second compound 0.00316 µM, first compound 0.0316 µM
[2] = second compound 0.00316 µM, first compound 0.1 µM
[3] = second compound 0.01 µM, first compound 0.0316 µM
[4] = second compound 0.01 µM, first compound 0.1 µM
[5] = second compound 0.0316 µM, first compound 0.0316 µM
[6] = second compound 0.0316 µM, first compound 0.1 µM
[7] = second compound 0.1 µM, first compound 0.0316 µM
[8] = second compound 0.1 µM, first compound 0.1 µM
[9] = second compound 0.316 µM, first compound 0.0316 µM
[10] = second compound 0.316 µM, first compound 0.1 µM
[11] = second compound 1 µM, first compound 0.0316 µM
[12] = second compound 1 µM, first compound 0.1 µM

## CC(C)n1nc(-c2ccc3oc(N)nc3c2)c2c(N)ncnc21 + COc1c(OCCCN2CCOCC2)ccc2c3n(c(=NC(=O)c4cnc(N)nc4)nc12)CCN3
Second compound 0.00316 µM
  IC50: 11.8 nM
Second compound 0.01 µM
  IC50: 1.34 nM
Second compound 0.0316 µM
  IC50: < 0.316 nM
Second compound 0.1 µM
  IC50: < 0.316 nM
Second compound 0.316 µM
  IC50: < 0.316 nM
Second compound 1 µM
  IC50: < 0.316 nM
Second compound 0.00316 µM, first compound 0.000316 µM
  viability, T/C: 66.9%
Second compound 0.00316 µM, first compound 0.001 µM
  viability, T/C: 47.5%
Second compound 0.00316 µM, first compound 0.00316 µM
  viability, T/C: 74.6%
Second compound 0.00316 µM, first compound 0.01 µM
  viability, T/C: 51.4%
[1]
  viability, T/C: 27.4%
[2]
  viability, T/C: 12.1%
Second compound 0.01 µM, first compound 0.000316 µM
  viability, T/C: 48.1%
Second compound 0.01 µM, first compound 0.001 µM
  viability, T/C: 56.3%
Second compound 0.01 µM, first compound 0.00316 µM
  viability, T/C: 46.8%
Second compound 0.01 µM, first compound 0.01 µM
  viability, T/C: 32.2%
[3]
  viability, T/C: 21.7%
[4]
  viability, T/C: 10.8%
Second compound 0.0316 µM, first compound 0.000316 µM
  viability, T/C: 25.7%
Second compound 0.0316 µM, first compound 0.001 µM
  viability, T/C: 22.9%
Second compound 0.0316 µM, first compound 0.00316 µM
  viability, T/C: 24%
Second compound 0.0316 µM, first compound 0.01 µM
  viability, T/C: 19.4%
[5]
  viability, T/C: 16.4%
[6]
  viability, T/C: 9.19%
Second compound 0.1 µM, first compound 0.000316 µM
  viability, T/C: 16.6%
Second compound 0.1 µM, first compound 0.001 µM
  viability, T/C: 14.2%
Second compound 0.1 µM, first compound 0.00316 µM
  viability, T/C: 14%
Second compound 0.1 µM, first compound 0.01 µM
  viability, T/C: 13.6%
[7]
  viability, T/C: 10.3%
[8]
  viability, T/C: 5.04%
Second compound 0.316 µM, first compound 0.000316 µM
  viability, T/C: 8.4%
Second compound 0.316 µM, first compound 0.001 µM
  viability, T/C: 7.74%
Second compound 0.316 µM, first compound 0.00316 µM
  viability, T/C: 6.9%
Second compound 0.316 µM, first compound 0.01 µM
  viability, T/C: 6.3%
[9]
  viability, T/C: 4.52%
[10]
  viability, T/C: 2.1%
Second compound 1 µM, first compound 0.000316 µM
  viability, T/C: 4.2%
Second compound 1 µM, first compound 0.001 µM
  viability, T/C: 4.04%
Second compound 1 µM, first compound 0.00316 µM
  viability, T/C: 3.72%
Second compound 1 µM, first compound 0.01 µM
  viability, T/C: 3.28%
[11]
  viability, T/C: 3.57%
[12]
  viability, T/C: 2.22%

## C[C@@H](NC(=O)c1ncnc(N)c1Cl)c1ncc(C(=O)Nc2cc(C(F)(F)F)c(Cl)cn2)s1 + CC(Nc1ccc2c(c1)OCCn1cc(N3C(=O)OCC3C(F)F)nc1-2)C(N)=O
Second compound 0.00316 µM
  IC50: > 10000 nM
Second compound 0.01 µM
  IC50: > 10000 nM
Second compound 0.0316 µM
  IC50: > 10000 nM
Second compound 0.1 µM
  IC50: 4550 nM
Second compound 0.316 µM
  IC50: < 31.6 nM
Second compound 1 µM
  IC50: < 31.6 nM
[1]
  viability, T/C: 168%
[2]
  viability, T/C: 171%
Second compound 0.00316 µM, first compound 0.316 µM
  viability, T/C: 154%
Second compound 0.00316 µM, first compound 1 µM
  viability, T/C: 148%
Second compound 0.00316 µM, first compound 3.16 µM
  viability, T/C: 158%
Second compound 0.00316 µM, first compound 10 µM
  viability, T/C: 116%
[3]
  viability, T/C: 136%
[4]
  viability, T/C: 152%
Second compound 0.01 µM, first compound 0.316 µM
  viability, T/C: 191%
Second compound 0.01 µM, first compound 1 µM
  viability, T/C: 135%
Second compound 0.01 µM, first compound 3.16 µM
  viability, T/C: 140%
Second compound 0.01 µM, first compound 10 µM
  viability, T/C: 108%
[5]
  viability, T/C: 99.4%
[6]
  viability, T/C: 126%
Second compound 0.0316 µM, first compound 0.316 µM
  viability, T/C: 155%
Second compound 0.0316 µM, first compound 1 µM
  viability, T/C: 158%
Second compound 0.0316 µM, first compound 3.16 µM
  viability, T/C: 112%
Second compound 0.0316 µM, first compound 10 µM
  viability, T/C: 85.4%
[7]
  viability, T/C: 74.7%
[8]
  viability, T/C: 72%
Second compound 0.1 µM, first compound 0.316 µM
  viability, T/C: 115%
Second compound 0.1 µM, first compound 1 µM
  viability, T/C: 77.2%
Second compound 0.1 µM, first compound 3.16 µM
  viability, T/C: 58.6%
Second compound 0.1 µM, first compound 10 µM
  viability, T/C: 32.5%
[9]
  viability, T/C: 51.3%
[10]
  viability, T/C: 47.6%
Second compound 0.316 µM, first compound 0.316 µM
  viability, T/C: 36.9%
Second compound 0.316 µM, first compound 1 µM
  viability, T/C: 39.3%
Second compound 0.316 µM, first compound 3.16 µM
  viability, T/C: 35.8%
Second compound 0.316 µM, first compound 10 µM
  viability, T/C: 9.29%
[11]
  viability, T/C: 29.2%
[12]
  viability, T/C: 33.5%
Second compound 1 µM, first compound 0.316 µM
  viability, T/C: 21.3%
Second compound 1 µM, first compound 1 µM
  viability, T/C: 27%
Second compound 1 µM, first compound 3.16 µM
  viability, T/C: 23%
Second compound 1 µM, first compound 10 µM
  viability, T/C: 6.01%

## CC(Nc1ccc2c(c1)OCCn1cc(N3C(=O)OCC3C(F)F)nc1-2)C(N)=O (configuration not stated)
Compound 0.1 µM
  viability, T/C: 31.2% [middle of 7 runs]
Compound 0.316 µM
  viability, T/C: 23.1% [middle of 7 runs]
Compound 1 µM
  viability, T/C: 20.4% [middle of 7 runs]
